Experimental findings from publication PMC9728921, “Characterization of a KDM5 small molecule inhibitor with antiviral activity against hepatitis B virus” (PLOS ONE, 2022) are described below.

For one experiment, the system named is H3K4 methylation. Description: Histone mass spectrometry of H3K4 methylation in PHH. In kind it is cell-based, human. The conditions noted are these: uninfected PHH; 10 μM every 3 days; Day 7. As for the experimental part:
Approximately 25 million PHH from Donor (Bioreclamation) were plated on collagen coated (Coating Matrix kit, Life Technologies, Cat. #R-011-K) plates (coated for 30 minutes at 37°C and subsequently washed twice with PHH plating medium). The PHH plating medium was removed after 16 hours and replaced with PHH maintenance medium (Day 0). […] Modifications to the manufacturer’s protocol included two PBS washes prior to adding the histone extraction buffer to the cells, precipitation of eluted histones in 8% perchloric acid, and a single wash in cold acetone containing 0.2% HCl.
Fresh 1:100 propionic anhydride:water reagent was prepared and 1 μl of mixture was added immediately to the histone sample with vortexing and incubated for 5 minutes at 25°C. The reaction was quenched with 1 μl of 80 mM hydroxylamine for 20 minutes at 25°C. […]
1 μl of sample was injected using a Thermo Fischer Scientific Ultimate 3000 Autosampler (San Jose, CA) onto a 15 cm x 75 μm Thermo Fischer Scientific ES812 Easyspray nano column with 5 μm particle size. […] Each sample was analyzed three times.
Data was searched using Thermo Fischer Scientific Proteome Discoverer V2.1 software. […] The ratio of drug treated/control was calculated for each sample and then corrected using the average protein level ratio to account for differences in total protein between control and treated samples.

For another experiment, the target named is T1, KDM4B (Homo sapiens, UniProt O94953).
T1 sequence (O94953 1-1096): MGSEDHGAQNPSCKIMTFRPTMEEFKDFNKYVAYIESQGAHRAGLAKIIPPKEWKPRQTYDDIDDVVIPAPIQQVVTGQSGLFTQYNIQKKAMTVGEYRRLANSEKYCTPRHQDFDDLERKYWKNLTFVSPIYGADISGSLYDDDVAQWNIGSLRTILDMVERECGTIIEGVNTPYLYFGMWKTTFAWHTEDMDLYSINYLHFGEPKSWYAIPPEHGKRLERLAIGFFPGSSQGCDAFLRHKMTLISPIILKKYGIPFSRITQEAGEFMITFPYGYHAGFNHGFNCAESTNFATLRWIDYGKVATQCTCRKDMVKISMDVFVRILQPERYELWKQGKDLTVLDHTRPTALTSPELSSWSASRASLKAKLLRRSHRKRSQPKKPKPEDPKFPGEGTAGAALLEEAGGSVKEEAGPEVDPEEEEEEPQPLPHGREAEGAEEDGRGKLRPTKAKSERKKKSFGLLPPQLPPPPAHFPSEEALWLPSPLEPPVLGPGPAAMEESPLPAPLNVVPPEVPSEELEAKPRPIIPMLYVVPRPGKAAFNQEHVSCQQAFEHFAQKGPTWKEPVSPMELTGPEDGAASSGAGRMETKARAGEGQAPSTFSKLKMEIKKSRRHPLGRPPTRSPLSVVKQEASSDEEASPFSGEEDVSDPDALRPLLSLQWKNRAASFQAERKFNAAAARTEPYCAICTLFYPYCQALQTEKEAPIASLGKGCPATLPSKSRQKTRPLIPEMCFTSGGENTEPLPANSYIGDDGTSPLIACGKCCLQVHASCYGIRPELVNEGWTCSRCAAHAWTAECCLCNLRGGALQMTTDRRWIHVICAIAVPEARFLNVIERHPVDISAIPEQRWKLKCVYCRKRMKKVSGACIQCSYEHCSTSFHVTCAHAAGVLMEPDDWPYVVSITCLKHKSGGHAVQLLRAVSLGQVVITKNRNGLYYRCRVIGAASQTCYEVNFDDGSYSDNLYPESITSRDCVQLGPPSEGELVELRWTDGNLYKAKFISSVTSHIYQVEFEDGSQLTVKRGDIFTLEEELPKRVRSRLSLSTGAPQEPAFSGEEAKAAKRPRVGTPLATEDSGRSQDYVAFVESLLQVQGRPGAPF
Nature of the experiment: KDM4B enzymatic assay (AlphaLISA). In kind it is biochemical. On the procedure:
The following assay protocol was used for all histone demethylases tested except KDM1A, KDM5A, B, and D, which are described below. Compounds were serially diluted into a 384-well Alpha plate as a DMSO solution and mixed with 5 μL reaction buffer (buffer A) containing 50 mM HEPES (pH 7.0), 0.1% BSA, and 0.003% Tween-20. The enzyme of interest was pre-incubated with 15 μM of Fe^2+ for 10 min (except 30 min for KDM2B) in reaction buffer A. 5 μL of the enzyme mixture was added to each of the compound-containing wells and incubated for 10 min. The reaction was started by addition of a 5 μL mixture containing 300 nM peptide substrate, 75 μM L-ascorbic acid, and 30 μM α-ketoglutarate in buffer A. This final 15 μL of reaction mixture was incubated for 20 min for KDM5B and 1 hour for the other KDM enzymes. The reaction was quenched with 10 μL of diluted AlphaLISA Acceptor beads (1:400) in Epigenetics Buffer and incubated for 60 min. The Donor beads were diluted 1:400 into Epigenetics Buffer in the dark and 10 μL of this was added to each well and incubated for another 60 min in the dark. The assay plates were read on an Enspire plate reader (PerkinElmer) using a standard AlphaLISA program.
(§1) Data was analyzed using GraphPad Prism 6.0 (La Jolla, CA). […] IC50 values were calculated as an average of at least two independent experiments.

A further experiment addresses T2, SETDB1 (Homo sapiens, UniProt Q15047).
T2 construct: 510-1290
Description: Histone methyltransferase enzymatic assay, SETDB1. In kind it is biochemical. The conditions noted are these: enzyme conc. 100 nM. As for the experimental part:
Histone methyltransferase assays were performed in 96-well half-area optiplates (PerkinElmer) at room temperature. All concentrations are final unless noted otherwise. Compounds were serially diluted in DMSO and the final DMSO concentration was 1%. A 24 μL reaction mixture contained compound, enzyme, 200 nM of nucleosome or histone substrate, 400 nM ^3H-SAM (83.1 Ci/mmol), 50 mM Tris-HCl (pH 8.0), 50 mM NaCl, 5 mM MgCl2, 1 mM DTT, and 0.01% Tween-20. The plate was sealed, mixed on a Titramax plate shaker at 1200 rpm for 30 sec, and incubated at room temperature for 60 min. The reaction was quenched by addition of 24 μL mixture containing 5 mg/mL PVT-PEI beads and 300 μM unlabeled SAM in water. The plate was sealed, mixed as previously noted, incubated overnight, and read on a TopCount plate reader (PerkinElmer).
as §1

In the case of `CCOC(=O)c1ccnc(CNCC(=O)N(CC)CCN(C)C)c1` [GS-5801], the “change in H3K4 methylation species by quantitative mass spectrometry” value in the experiment on H3K4 methylation is given as “predominantly caused an increase in trimethylated H3K4 (H3K4me3)”.
As to `CCN(CCN(C)C)C(=O)CNCc1cc(C(=O)O)ccn1` [GS-080], at KDM4B (IC50 of KDM4B over KDM5A), the “Fold Selectivity Compared to KDM5A” value was found to be 13 fold. The IC50 at KDM4B (enzyme concentration 1 nM) is 4.7 nM; against SETDB1, greater than 100000 nM.

The IC50 is the concentration needed to halve the response being measured. Low readings indicate higher potency, high ones lower potency.
